Data as given in US20130029981A1, “COMPOUNDS, COMPOSITIONS, AND METHODS FOR CONTROLLING BIOFILMS” (Katholieke Universiteit Leuven, priority 2009, published 2013).
Read-outs that look alike come from different tables or passages of the source.

Tests used:
[1] = system: Pseudomonas aeruginosa PA14; assay: Static peg assay for prevention of biofilm formation (Calgary device, crystal violet); type: cell-based
Method: (§1) Evaluation of the biofilm inhibitory activity of some substituted 2-amino-1H-imidazoles of the invention was carried out by growing up biofilms of S. Typhimurium ATCC14028 or SL1344 or Pseudomonas aeruginosa PA14 in the presence of different concentrations (1/2 dilution series) of biofilm inhibitors, by using the Calgary biofilm device. After an incubation period of 24 hours at 25° C. or 37° C. or 48 hours at 16° C. the biofilms were visualized by crystal violet staining. In the next step the stain was extracted from the biofilm with 30% acetic acid. The absorbance of the resolubilized stain at 570 nm is a measure of the amount of biofilm formed.
The device used for Pseudomonas aeruginosa biofilm formation is the same platform carrying polystyrene pegs as described above for Salmonella Typhimurium.
Two-fold serial dilutions of the compounds in 100 μl liquid broth per well were prepared in the microtiter plate. Subsequently, an overnight culture of P. aeruginosa PA14 (grown up in TSB medium) was diluted 1:100 into liquid broth and 100 μl was added to each well of the microtiter plates, resulting in a total amount of 200 μl medium per well. The pegged lid was placed on the microtiter plate and the plate was incubated for 24 hours at 25° C., 30° C. or 37° C. without shaking. During this incubation period biofilms were formed on the surface of the pegs. The liquid broth used for the tests at 25° C. was TSB 1/20. The tests at 37° C. were performed in CFA and/or LBNS broth. During incubation at 30° C. and 37° C. the plates were placed in a humidity controlled container to prevent evaporation of the growth medium. Quantification of biofilm formation was performed similarly as described previously for the S. Typhimurium biofilm assays.
as §1, with “imidazo[1,2-a]pyrimidinium bromide salts” for “2-amino-1H-imidazoles”
as §1, with “substituted imidazo[1,2-a]-pyrimidinium bromide and perchlorate salts produced according to examples 3 and 5” for “substituted 2-amino-1H-imidazoles of the invention”, “C.” for “C. or 37° C. or 48 hours at 16° C.”, “nm was taken as” for “nm is”

[2] = system: S. Typhimurium ATCC14028; assay: as above; type: cell-based, Salmonella Typhimurium
How it was run: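 Calgary 96-peg device, ca. 10^6 cells of ATCC14028 per well in TSB 1/20 for 24 h at 25° C (or 48 h at 16° C, medium and compound renewed at 24 h), or in CFA broth for 24 h at 37° C, static, with two-fold compound dilutions. Crystal violet stain, acetic acid extraction, OD570. IC50 from 2–3 independent experiments.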

[3] = 25° C., 24 hours, Table 15, read-out: (2) IC50 (biofilm inhibition)
[4] = 25° C., Table 16, read-out: P. aeruginosa IC50 (biofilm formation)
[5] = 25° C., 24 hours, Table 15, read-out: (1) IC50 (biofilm inhibition)
[6] = 25° C., Table 16, read-out: S. Typhimurium IC50 (biofilm formation)
[7] = Table 21, P. aeruginosa PA14, 25° C., read-out: P. aeruginosa IC50 (biofilm formation)
[8] = Table 21, S. Typhimurium ATCC14028, 25° C., read-out: S. Typhimurium IC50 (biofilm formation)
[9] = P. aeruginosa PA14, 25° C., read-out: P. aeruginosa IC50 (biofilm formation)
[10] = S. Typhimurium ATCC 14028, 25° C., read-out: S. Typhimurium IC50 (biofilm formation)

SMILES | IC50 [1, 3] [µM] | IC50 [1, 4] [µM] | IC50 [2, 5] [µM] | IC50 [2, 6] [µM] | also measured
OC1(c2ccc(Cl)cc2)C[n+]2cccnc2N1C1CCC1 (stereo not shown) [Compound 62] |  |  |  |  | IC50 ([1]; 25° C., Table 18, read-out: P. aeruginosa IC50 (biofilm formation)): 372 µM; IC50 ([2]; 25° C., Table 18, read-out: S. Typhimurium IC50 (biofilm formation)): 121 µM
CCCCCCCCCCCCCN1c2nccc[n+]2CC1(O)c1ccccc1 (racemic) [Compound 13] | 17 | > 800 | 81.6 | 81.6 | 
Brc1ccc(-c2cnc(NC3CCCC3)[nH]2)cc1 [Compound 120] |  |  |  |  | IC50 [1, 7]: 7.2 µM; IC50 [2, 8]: 12.1 µM
CC(C)CNc1nc(-c2ccc(Cl)cc2)c[nH]1 [Compound 86] |  |  |  |  | IC50 [1, 9]: 0.9 µM; IC50 [2, 10]: 2 µM
CCCCN1c2nccc[n+]2CC1(O)c1ccc([N+](=O)[O-])cc1 (stereo not shown) [Compound 31] |  | 145 |  | 293 | 
CCN1c2nccc[n+]2CC1(O)c1ccc([N+](=O)[O-])cc1 (racemic) [Compound 29] |  | > 800 |  | 579 | 
CC(C)N1c2nccc[n+]2CC1(O)c1ccc([N+](=O)[O-])cc1 (racemic) [Compound 30] |  | 192 |  | 466 | 
CCCCCCCCNc1nc(-c2ccc(Cl)cc2)c[nH]1 [Compound 88] |  |  |  |  | IC50 [1, 9]: ~1.6 µM; IC50 [2, 10]: > 400 µM
CCCCCCCCN1c2nccc[n+]2CC1(O)c1ccc([N+](=O)[O-])cc1 (stereo not shown) [Compound 35] | 7.65 | 19.7 | 6.62 | 6.6 | 
CCCCCCCCN1c2nccc[n+]2CC1(O)c1ccc(Cl)cc1 (racemic) [Compound 21] | 11.7 | 21.7 | 6.98 | 7 | 
CCCCCCCCN1c2nccc[n+]2CC1(O)c1ccc(-c2ccc(-c3ccccc3)cc2)cc1 (stereo not shown) [Compound 55] | 26.8 |  | ~52.8 |  | IC50 ([1]; 25° C., Table 17, read-out: P. aeruginosa IC50 (biofilm formation)): 336 µM; IC50 ([2]; 25° C., Table 17, read-out: S. Typhimurium IC50 (biofilm formation)): ~52.8 µM
CCCCCCCCCN1c2nccc[n+]2CC1(O)c1ccc(Cl)cc1 (racemic) [Compound 22] | 60.5 | 21 | 18.3 | 18.3 | 
CNc1ncc(-c2ccc(F)cc2)[nH]1 [Compound 97] |  |  |  |  | IC50 [1, 9]: 25.2 µM; IC50 [2, 10]: 102 µM
CCNc1ncc(-c2ccc([N+](=O)[O-])cc2)[nH]1 [Compound 92] |  |  |  |  | IC50 [1, 9]: 104 µM; IC50 [2, 10]: 171 µM
O=[N+]([O-])c1ccc(-c2cnc(NC3CCCC3)[nH]2)cc1 [Compound 119] |  |  |  |  | IC50 [1, 7]: 20.2 µM; IC50 [2, 8]: 11.8 µM
CCCCNc1nc(-c2ccc(F)cc2)c[nH]1 [R1=H, R2=Butyl, R3=H, R4=p-F—Ph] |  |  |  |  | IC50 ([1]; P. aeruginosa PA14, 25° C., read-out: IC50 for biofilm inhibition (25° C.)): 6 µM; IC50 ([2]; S. Typhimurium ATCC 14028, 25° C., read-out: IC50 for biofilm inhibition (25° C.)): 16 µM
CC(C)N1c2nccc[n+]2CC1(O)c1ccccc1 (racemic) [Compound 2] |  | > 400 |  | 540 | 
CCCCCCCCCCN1c2nccc[n+]2CC1(O)c1ccc(Cl)cc1 (racemic) [Compound 23] | 193 | 66.4 | 51.3 | 51.3 | 
COc1cccc(CCNc2ncc(-c3ccc(Cl)c(Cl)c3)[nH]2)c1 [Compound 130] |  |  |  |  | IC50 ([1]; 25° C., Table 22, read-out: P. aeruginosa IC50 (biofilm formation)): > 800 µM; IC50 ([2]; 25° C., Table 22, read-out: S. Typhimurium IC50 (biofilm formation)): > 800 µM
CCCCCCCC[n+]1c(-c2ccc(SC)cc2)cn2cccnc21.[O-][Cl+3]([O-])([O-])[O-] [2-(4-Methylthiophenyl)-1-octylimidazo[1,2-a]pyrimidin-1-ium perchlorate] |  |  |  |  | IC50 ([1]; Pseudomonas aeruginosa, PA14, 24 h, read-out: (2) IC50 (biofilm inhibition)): 9.29 µM; IC50 ([2]; Salmonella enterica, 24 h, read-out: (1) IC50 (biofilm inhibition)): 20.7 µM
CC(C)CNc1nc(-c2ccccc2)c[nH]1 [Compound 84] |  |  |  |  | IC50 [1, 9]: 1.2 µM; IC50 [2, 10]: 4.9 µM
CCCCCCCCCN1c2nccc[n+]2CC1(O)c1ccccc1 (racemic) [Compound 9] | 4.85 | 55.7 | 8.26 | 8.3 | 
